Reference: paper PMC2898382 (The Journal of Biological Chemistry, 2010)

Molecular target: T1, purified bovine catalase (Bos taurus, UniProt P00432)
T1 sequence (P00432 2-527): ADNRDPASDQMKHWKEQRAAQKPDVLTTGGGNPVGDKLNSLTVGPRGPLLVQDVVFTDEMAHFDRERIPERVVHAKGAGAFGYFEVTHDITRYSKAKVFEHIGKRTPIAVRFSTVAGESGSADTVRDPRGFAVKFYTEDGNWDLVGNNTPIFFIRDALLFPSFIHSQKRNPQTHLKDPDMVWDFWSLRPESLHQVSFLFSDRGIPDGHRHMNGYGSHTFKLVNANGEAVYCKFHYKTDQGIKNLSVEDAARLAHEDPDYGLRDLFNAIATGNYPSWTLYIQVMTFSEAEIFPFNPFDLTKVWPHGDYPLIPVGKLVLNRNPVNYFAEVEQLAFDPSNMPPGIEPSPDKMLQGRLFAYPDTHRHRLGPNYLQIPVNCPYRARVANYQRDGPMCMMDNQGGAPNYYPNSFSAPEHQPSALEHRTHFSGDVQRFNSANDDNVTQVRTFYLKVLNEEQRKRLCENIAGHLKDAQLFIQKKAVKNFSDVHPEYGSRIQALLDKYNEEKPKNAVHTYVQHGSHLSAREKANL
Experiment: H2O2 breakdown at […] nm, global fit to competitive inhibition model
Type: biochemical

Ki: 230 µM
Compound: NC(=O)NO [Hydroxyurea]
